Results on 2 compounds are retold here after US20230293512A1, “S100 PROTEINS AS NOVEL THERAPEUTIC TARGETS IN MYELOPROLIFERATIVE NEOPLASMS” (ERASMUS UNIVERSITY MEDICAL CENTER ROTTERDAM, priority 2020, published 2023).

In one experiment the test system is S100A8 and S100A9. As to conditions: Stewart et al, Bone Marrow Res. 2018; cited from earlier work.
Another experiment concerns the target T1, S100A9 protein (Homo sapiens, UniProt P06702).
T1 sequence (P06702 1-114): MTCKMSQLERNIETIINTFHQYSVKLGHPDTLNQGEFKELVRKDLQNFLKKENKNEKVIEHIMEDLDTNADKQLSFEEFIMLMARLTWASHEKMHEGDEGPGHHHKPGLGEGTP
As to conditions: cited from earlier work.

In experiment [1] the test system is mice developing JAK2(V617F)-mediated myelofibrosis. Put plainly: Tasquinimod treatment of mice with JAK2(V617F)-induced myelofibrosis. Type of experiment: in vivo. As to conditions: JAK2(V617F)-transplanted mice, 30 mg/kg/day in drinking water; for MPN-specific leukocytosis (white blood cell counts from peripheral blood) / splenomegaly (spleen weights normalized to mouse weight) / bone marrow fibrosis grade (reticulin grade): 30 mg/kg/day; for bone marrow fibrosis grade (reticulin grade): vehicle-treated mice developed grade 2-3 fibrosis and osteosclerosis. As for the experimental part: Murine organs were fixed in 4% paraformaldehyde for 24 hours and transferred to 70% ethanol. Femurs were decalcified in 10% EDTA/Tris-HCl (pH 6.6) solution for 72 hours, dehydrated and paraffin embedded. H&E and reticulin staining were performed on 4 μm sections according to established routine protocols.
Blood was periodically collected from mice via submandibular bleeds into Microtainer tubes coated with K2EDTA (Becton Dickinson, NJ, USA) and complete blood counts were performed on a Horiba Scil Vet abc Plus hematology system.
For tasquinimod studies, WT recipient mice (n=7-10/group) were lethally irradiated (10.5 Gy) and received ckit^+ cells transduced with […] or JAK2^(WT) retroviral virus. Tasquinimod treatment (ABR-215050, Biorbyt) was administered via drinking water at 30 mg/kg/day dissolved in 3% sucrose in autoclaved water. Tasquinimod was first dissolved in DMSO and mixed with 3% sucrose, 2% PEG300 (Sigma) in water. Vehicle-treated groups received DMSO-, PEG300-treated water with 3% sucrose. Drinking bottles were renewed twice a week. Treatment was started at 5 weeks post-transplant until 10 post-transplant, and resumed at 13 weeks post-transplant until sacrifice at 20 weeks post-transplant. Mice were randomly assigned to transplant and treatment groups.
To further validate the role of S100A8/S100A9 in the fibrotic initiation and progression, the inventors sought to use a S100A9-inhibitor known as tasquinimod (ABR-215050) in mice developing JAK2(V617F)-mediated myelofibrosis. […] Tasquinimod treatment was administered via drinking water starting at 5 weeks post-transplant, until sacrifice at 20 weeks post-transplant with a treatment break at 10 weeks post-transplant to minimize deleterious effects on normal granulocyte function (FIG. 4A).

The mark [2] stands for this setting: weeks 5-10 and 13-20 post-transplant, vs vehicle.
Setting [3] is: weeks 5-10 and 13-20 post-transplant, vs vehicle, listed as Tasquinimod.

With `Cc1sc2c(c1C)C(c1ccc(Cl)cc1)=N[C@@H](CC(=O)OC(C)(C)C)c1nnc(C)n1-2` [JQ1], in the experiment with S100A8 and S100A9, the “S100A8 and S100A9 mRNA and protein levels” value is “suppress S100A8 and S100A9 mRNA and protein levels”.
On to `COc1cccc2c1c(O)c(C(=O)N(C)c1ccc(C(F)(F)F)cc1)c(=O)n2C` [tasquinimod, 4-hydroxy-5-methoxy-N,1-dimethyl-2-oxo-N-[4-(trifluoromethyl)phenyl]-1,2-dihydroquinoline-3-carboxamide], for which the “binding to S100A9 protein and effect on its interaction with TLR4 and RAGE receptors” value at S100A9 protein was “binds to S100A9 protein and impedes its interaction with TLR4 and RAGE receptors”. Besides, in experiment [1] (setting [2]), the “thrombocytosis (platelet counts in peripheral blood)” value is recorded as “did not develop thrombocytosis”, the “MPN-specific leukocytosis (white blood cell counts from peripheral blood)” value is listed as “did not develop MPN-specific leukocytosis” and the “splenomegaly (spleen weights normalized to mouse weight)” value is on record as “completely normalized”. In addition, in experiment [1] (setting [3]), the “MPN-specific leukocytosis (white blood cell counts from peripheral blood)” value was “normalizes splenomegaly and leukocytosis”; the “splenomegaly (spleen weights normalized to mouse weight)” value is on record as “normalizes splenomegaly”. Further, the “bone marrow fibrosis grade (reticulin grade)” value in experiment [1] was “reduced fibrosis grade”. The “bone marrow fibrosis grade (reticulin grade)” value in experiment [1] (listed as Tasquinimod) is reported as “reduces fibrosis in bone marrow”.
